Several values for one entry are separate records, joined by “and”; a condition that tells them apart may be missing. Equal entries are not always repeated.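 The compound was tested at five concentrations on cells cultured in 96-well plates, with a 48-hour exposure period. At the GI50, growth is halved. TGI is the concentration that stops growth completely.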 Where a SMILES comes first, the peptide text is derived from it.
Legend:
Experiment in all cases: NCI-60 cell line screen, 48 h
786-0 renal = test system: 786-0 renal
EKVX NSCLC = test system: EKVX NSCLC
HCC-2998 colon = test system: HCC-2998 colon
IGROV1 ovarian = test system: IGROV1 ovarian
MALME-3M melanoma = test system: MALME-3M melanoma
NCI/ADR-RES ovarian = test system: NCI/ADR-RES ovarian
SF-268 CNS = test system: SF-268 CNS
SK-OV-3 ovarian = test system: SK-OV-3 ovarian
SN12C renal = test system: SN12C renal
SNB-19 CNS = test system: SNB-19 CNS

SMILES	GI50 (786-0 renal) [µM]	TGI (786-0 renal) [µM]	GI50 (EKVX NSCLC) [µM]	TGI (EKVX NSCLC)	GI50 (HCC-2998 colon) [µM]	TGI (HCC-2998 colon)	GI50 (IGROV1 ovarian) [µM]	TGI (IGROV1 ovarian)	GI50 (MALME-3M melanoma) [µM]	TGI (MALME-3M melanoma)	GI50 (NCI/ADR-RES ovarian) [µM]	TGI (NCI/ADR-RES ovarian)	GI50 (SF-268 CNS) [µM]	TGI (SF-268 CNS)	GI50 (SK-OV-3 ovarian) [µM]	TGI (SK-OV-3 ovarian)	GI50 (SN12C renal) [µM]	TGI (SN12C renal) [µM]	GI50 (SNB-19 CNS)	TGI (SNB-19 CNS)
c1cc(OCCN2CCCCCC2)ccc1CNc1ccc2nc(CCC3CCCCC3)[nH]c2c1	1.6	3.29	2.49	9.58 µM	1.99	3.98 µM	2.04	7.31 µM	1.64	3.1 µM	2.64	8.66 µM	2.42	9.2 µM	2.18	4.84 µM	1.64	4.57	3.05 µM	11.4 µM
CCN(CC)CCOc1ccc(/C(=C(\C)Cc2ccc(OC)cc2)c2ccc(OC(=O)NCc3ccccc3)cc2)cc1	1.64	3.04	2.63	11.5 µM	1.84	3.62 µM	2.46	6.11 µM	1.72	3.3 µM	3.18	11.8 µM	2.87	10.7 µM	5.11	18.7 µM	1.73	3.21	3.5 µM	11.6 µM
O=C(Nc1nccs1)c1cc2c(cc1Cl)Sc1nccn1S2(=O)=O	16	29.4	20.6	44.7 µM	15.9	29.4 µM	11.7	29.8 µM	20	37.2 µM	18.9	44.7 µM	19.2	46.9 µM	24.5	63.9 µM	16.8	32.6	18.9 µM	37 µM
O=C(O)C1NCCc2c1[nH]c1ccccc21 (stereo unspecified)	> 100	> 100		> 100 µM	> 100	> 100 µM	> 100	> 100 µM	> 100	> 100 µM		> 10 µM	> 100	> 100 µM	> 100	> 100 µM	> 100	> 100	> 100 µM	> 100 µM
ClCc1ccc(-c2ccc(Cn3cnc4c(Cl)nc(Cl)nc43)cc2)cc1	6.43	19.6	3.32	15.5 µM	1.41	2.9 µM	0.885	2.28 µM	7.06	23.8 µM	2.5	7.55 µM	2.01	4.77 µM	10.6	22.6 µM	2.72	8.93	1.95 µM	4.15 µM
Cn1ncc2c(/N=C/c3cccs3)[nH]c(=S)nc21	60.1	> 100	41.1	99.8 µM	32.9	> 100 µM	> 61.2	> 100 µM	34	> 80.7 µM	> 100	> 100 µM	26.2	> 94.6 µM	80	> 100 µM	> 36	> 69.2	49.9 µM	> 100 µM
C=C1C(=O)O[C@@H]2C(=O)[C@@H](C)[C@@H]3C=CC(=O)[C@@]3(C)[C@@H](OC(=O)/C(C)=C\C)[C@H]12		1		2.53 µM		3.23 µM		3.28 µM		0.948 µM		7.28 µM		6.22 µM		26.9 µM		2.85		25.9 µM
COc1ccc(/C(C)=C(\c2ccc(Cl)cc2)c2ccc(OCCN3CCCC3)cc2)cc1F	3.39	7.02	3.73	7.27 µM	3.44	6.94 µM	3.17	7.21 µM	1.23	4.63 µM	3.9	7.8 µM	4.26	8.76 µM	4.18	7.86 µM	3.55	7.12	3.87 µM	7.41 µM
S=c1nc2[nH]ncc2c(N/N=C/c2ccccc2)[nH]1	> 100	> 100	> 100	> 100 µM	> 100	> 100 µM	45.4	> 100 µM	> 100	> 100 µM	> 100	> 100 µM	> 100	> 100 µM	> 100	> 100 µM	> 100	> 100	> 100 µM	> 100 µM
CC(C)CC(NC(=O)C(CC(C)C)NC(=O)C(Cc1cnc[nH]1)NC(=O)C(C)NC(=O)C(NC(=O)C(C)NC(=O)C(Cc1c[nH]c2ccccc12)NC(=O)C(CCC(=O)O)NC(=O)C(N)Cc1ccccc1)C(C)C)C(N)=O (stereo unspecified) (H-FEWAVAHLL-NH2; configuration not given here)	> 100	> 100	> 100	> 100 µM	> 100	> 100 µM	> 100	> 100 µM		> 12.5 µM		> 12.5 µM		> 12.5 µM	> 100	> 100 µM	> 100	> 100		> 100 µM
COc1cc(C#N)cc(OC)c1OCCOCCOc1c(OC)cc(C#N)cc1OC	> 100	> 100	> 100	> 100 µM	> 100	> 100 µM	89.2	> 100 µM	58.1	> 100 µM	24.8	> 100 µM	> 100	> 100 µM	> 100	> 100 µM	> 100	> 100	94.4 µM	> 100 µM
COc1cc(/C=C/C(=O)c2ccc(Nc3ncnc4ccccc34)cc2)cc(OC)c1	4.2	14.5	51.9	> 100 µM	1.79	3.38 µM	13.5	60.2 µM	23.8	> 100 µM	6.52	> 100 µM	3.06	12.2 µM	3.6	10.7 µM	7.3	38	9.99 µM	83.2 µM
COc1ccc2c(c1)CCc1c(-c3noc4c3CCc3cc(OC)ccc3-4)noc1-2		> 100		> 100 µM		> 100 µM		> 100 µM		> 100 µM		> 100 µM		> 100 µM		> 100 µM		> 100		> 100 µM
NC1=C(Cl)C(=O)c2ccc(S(N)(=O)=O)cc2C1=O	1.82	3.24	1.53	2.91 µM	0.775	2.06 µM	0.681	1.57 µM	0.0426	0.137 µM	0.285	4.68 µM	0.372	1.22 µM	1.67	3.11 µM	0.172	0.34	0.305 µM	1.05 µM
CC(=O)O[C@H]1C(=O)O[C@@H]2C[C@H]3C(C)=CC(=O)[C@@H](O)[C@]3(C)[C@H]3[C@@]4(O)OC[C@]32[C@@H]1[C@@H](C)[C@H]4O		0.14	0.159	1.12 µM and 0.219 µM	0.032	0.548 µM and 0.271 µM	< 0.01	1.4 µM and 0.247 µM	< 0.01	0.062 µM and 0.0429 µM	0.844	15.2 µM and 51.4 µM	0.0173	0.0585 µM and 0.184 µM	0.237	4.04 µM and 3.35 µM	0.0304		0.0138 µM and 0.0382 µM	0.0995 µM and 0.135 µM
C=C1C(=O)O[C@H]2[C@H]1CC/C(Cn1cc(Cn3ccc4ccccc43)nn1)=C\CC[C@@]1(C)O[C@@H]21	1.59	3.12	1.86	4.22 µM	1.93	3.66 µM	1.86	3.61 µM	1.59	3.34 µM	5.07	21.6 µM	1.82	3.63 µM	16	30.1 µM	1.65	3.46	3.88 µM	15.7 µM
CNNCc1ccc(C(=O)NC(C)C)cc1	> 500	> 500		> 500 µM	> 500	> 500 µM	> 500	> 500 µM		> 500 µM		> 500 µM		> 500 µM		> 500 µM		> 500		> 500 µM
COC(=O)C(C)NP(=O)(OCc1ccc(Cn2cnc3c(=O)[nH]c(N)nc32)cc1)Oc1ccccc1 (stereo unspecified)	> 100	> 100	> 100	> 100 µM	> 100	> 100 µM	> 100	> 100 µM	> 100	> 100 µM	> 100	> 100 µM	> 100	> 100 µM	> 100	> 100 µM	> 100	> 100	> 100 µM	> 100 µM
O=C1/C(=C\C(Cl)=C/c2ccc([N+](=O)[O-])cc2)SC(=S)N1CCc1ccc(O)cc1	0.255	0.707	0.94	2.21 µM	0.392	1.42 µM	0.512	1.68 µM	1.05	2.48 µM	0.342	1.78 µM	0.831	2.77 µM	2.59	6.42 µM	0.33	1.38	0.507 µM	1.86 µM
O=C1C(=O)c2ccccc2-c2ccccc21	1.83	3.35	1.81	3.25 µM	1.99	3.52 µM	2.07	3.75 µM	1.79	3.31 µM	0.543	2.9 µM	1.61	3.15 µM	1.73	3.25 µM	1.61	3.29	1.45 µM	2.95 µM
CCOC(=O)c1c(C)nc2ccc(Cl)cc2c1-c1ccccc1	17	35.1	25.6	88.2 µM	19.4	46.9 µM	16.6	61.1 µM	17.6	42.3 µM	22.2	80.2 µM	19.3	44.4 µM	19.1	45.6 µM	16.8	32.7	14.4 µM	34.9 µM
O=c1cc(-c2ccc(Cl)cc2)[nH]c2ncccc12	34.1	> 100		> 100 µM		> 100 µM		> 100 µM		> 100 µM		> 100 µM		> 100 µM		> 100 µM		> 100		> 100 µM
COc1ccc(-c2cc(=O)c3c(OC)c(OC)c(OC)c(OC)c3o2)cc1OC		> 100		> 100 µM		> 100 µM		> 100 µM		> 100 µM		97.1 µM		> 100 µM		> 100 µM		> 100		> 100 µM
